Reference: patent US12447170B2, “Use of maribavir in treatment regimens” (priority 2021, dated 2025)

Experiments:
[1] = Drug interaction summary: effect of co-administered drugs on maribavir pharmacokinetics (Tables 1-A, 1-B); details: concomitant drug with maribavir; observed and predicted
Text: Drug interaction studies were summarized based on Example 2 and other available data (e.g., in vitro and clinical data).

[2] = Drug interaction summary: effect of maribavir 400 mg twice daily on co-administered drug pharmacokinetics (Tables 1-A, 1-C); type: in vivo, human; details: for Effect on Concentration (of concomitant drug): concomitant drug with maribavir, observed and predicted; for Geometric Mean Ratio of co-administered drug PK with/without maribavir (No Effect = 1.00), AUC / Geometric Mean Ratio of co-administered drug PK with/without maribavir (No Effect = 1.00), Cmax: digoxin 0.5 mg single dose
[3] = design: species or system human; details: in vivo
Text: Accumulated data have shown that maribavir is metabolized primarily in the liver, and renal clearance is a minor route (representing less than 5 percent). VP 44469 (N-dealkylated Maribavir) was the principal metabolite of maribavir in both urine and feces. In plasma, unchanged maribavir and VP 44469 represented approximately 69% and 9.8% of total radioactivity, respectively. The hepatic metabolism of maribavir was primarily driven by cytochrome P450s. CYP3A4 and CYP1A2 were responsible for 70 to 85% and 15 to 30% of the CYP-driven pathways, respectively. Glucuronidation accounted for less than 20% of metabolism.
Distribution models evaluated included a full PBPK model and a minimal PBPK model, both of which consider liver and intestinal metabolism. Mass balance data from the [^14C] ADME study indicated a fraction absorbed of 0.83 or greater following oral administration of 400 mg dose of maribavir. Absorption models evaluated included a simple first-order absorption model and a more mechanistic “Advanced Dissolution Absorption and Metabolism” (ADAM) model.

[4] = in the presence of 400 mg twice daily maribavir, tacrolimus stable dose twice daily

| SMILES | Effect on Concentration (of maribavir) [1] | Effect on Concentration (of concomitant drug) [2] | also measured |
| --- | --- | --- | --- |
| NC(=O)N1c2ccccc2C=Cc2ccccc21 [Carbamazepine, reference compound] | ↓Maribavir |  |  |
| CO[C@H]1C[C@@H]2CC[C@@H](C)[C@@](O)(O2)C(=O)C(=O)N2CCCC[C@H]2C(=O)O[C@H]([C@H](C)C[C@@H]2CC[C@@H](O)[C@H](OC)C2)CC(=O)[C@H](C)/C=C(\C)[C@@H](O)[C@@H](OC)C(=O)[C@H](C)C[C@H](C)/C=C/C=C/C=C/1C [Sirolimus] |  | ↑Sirolimus |  |
| C=CC[C@@H]1/C=C(\C)C[C@H](C)C[C@H](OC)[C@H]2O[C@@](O)(C(=O)C(=O)N3CCCC[C@H]3C(=O)O[C@H](/C(C)=C/[C@@H]3CC[C@@H](O)[C@H](OC)C3)[C@H](C)[C@@H](O)CC1=O)[C@H](C)C[C@@H]2OC [Tacrolimus] |  | ↑Tacrolimus | increase of tacrolimus exposure by maribavir ([2]; co-administration with maribavir): 51%; Geometric Mean Ratio of co-administered drug PK with/without maribavir (No Effect = 1.00), Ctrough [2, 4]: 1.57; Geometric Mean Ratio of co-administered drug PK with/without maribavir (No Effect = 1.00), AUC [2, 4]: 1.51; Geometric Mean Ratio of co-administered drug PK with/without maribavir (No Effect = 1.00), Cmax [2, 4]: 1.38 |
| O=C1NC(=O)C(c2ccccc2)(c2ccccc2)N1 [Phenytoin, reference compound] | ↓Maribavir |  |  |
| CO[C@H]1/C=C/O[C@@]2(C)Oc3c(C)c(O)c4c(c3C2=O)C2=NC3(CCN(CC(C)C)CC3)NC2=C(NC(=O)/C(C)=C\C=C\[C@H](C)[C@H](O)[C@@H](C)[C@@H](O)[C@@H](C)[C@H](OC(C)=O)[C@@H]1C)C4=O [Rifabutin, reference compound] | ↓Maribavir |  |  |
| C[C@H]1O[C@@H](O[C@H]2[C@@H](O)C[C@H](O[C@H]3[C@@H](O)C[C@H](O[C@H]4CC[C@@]5(C)[C@H](CC[C@@H]6[C@@H]5C[C@@H](O)[C@]5(C)[C@@H](C7=CC(=O)OC7)CC[C@]65O)C4)O[C@@H]3C)O[C@@H]2C)C[C@H](O)[C@@H]1O [digoxin] |  | ↑digoxin | Geometric Mean Ratio of co-administered drug PK with/without maribavir (No Effect = 1.00), AUC [2, 4]: 1.21; Geometric Mean Ratio of co-administered drug PK with/without maribavir (No Effect = 1.00), Cmax [2, 4]: 1.25 |
| CO[C@H]1/C=C/O[C@@]2(C)Oc3c(C)c(O)c4c(O)c(c(/C=N/N5CCN(C)CC5)c(O)c4c3C2=O)NC(=O)/C(C)=C\C=C\[C@H](C)[C@H](O)[C@@H](C)[C@@H](O)[C@@H](C)[C@H](OC(C)=O)[C@@H]1C [Rifampin, reference compound] | ↓Maribavir |  |  |
| CO[C@H]1C[C@@H]2CC[C@@H](C)[C@@](O)(O2)C(=O)C(=O)N2CCCC[C@H]2C(=O)O[C@H]([C@H](C)C[C@@H]2CC[C@@H](OCCO)[C@H](OC)C2)CC(=O)[C@H](C)/C=C(\C)[C@@H](O)[C@@H](OC)C(=O)[C@H](C)C[C@H](C)/C=C/C=C/C=C/1C [Everolimus] |  | ↑Everolimus |  |
| CCC1(c2ccccc2)C(=O)NC(=O)NC1=O [Phenobarbital, reference compound] | ↓Maribavir |  |  |
| Nc1nc2cc(Cl)c(Cl)cc2n1[C@H]1O[C@@H](CO)[C@H](O)[C@@H]1O [VP 44469, N-dealkylated Maribavir] |  |  | share of total radioactivity in plasma [3]: ~9.8% |
